Data: patent US20080292619A1, “Pharmaceutical Composition Containing Meltrin Antagonist” (MOCHIDA PHARMACEUTICAL CO., LTD., priority 2004, published 2008)
In the oligonucleotide strings, read from the 5' end, every base follows the letter of its sugar. An asterisk marks phosphorothioate; unmarked linkages are phosphodiester. Other units and linkages are bracketed, terminal groups are in braces. A string of capitals states the bases alone. d = 2'-deoxy (DNA)

System: human meltrin α RNA
Assay: Suppression of human meltrin α expression by antisense compound in RD cell (real time PCR)
Assay type: cell-based
Conditions: RD cell, corrected by GAPDH
In short: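 RD cells transfected with heat-denatured antisense oligodeoxynucleotide plus Lipofectin in Opti-MEM for 4 h at 37° C, then cultured 18 h. Meltrin α RNA quantified by TaqMan RT-PCR against plasmid standard curve, GAPDH-corrected; suppression vs untreated cells, rated +/++/+++ for ≥30/50/70%.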

H139 + 17: cgctaggtgcacgtggggcc (CGCTAGGTGCACGTGGGGCC; antisense; DNA, all phosphorothioate, methylation of C not given here)
suppression rate of expression, 50 nM: + (“+” when the suppression rate was at least 30%)

H164: atgcctactacagcgcactg (dA*dT*dG*dC*dC*dT*dA*dC*dT*dA*dC*dA*dG*dC*dG*dC*dA*dC*dT*dG; antisense)
suppression rate of expression, 200 nM: ++ (“++” when the suppression rate was at least 50%)

H136 + 15: gggacattcaggccgttgag (GGGACATTCAGGCCGTTGAG; antisense; DNA, all phosphorothioate, methylation of C not given here)
suppression rate of expression, 50 nM: + (“+” when the suppression rate was at least 30%)

H136: ttgaggggtctgctgatgtc (TTGAGGGGTCTGCTGATGTC; antisense; DNA, all phosphorothioate, methylation of C not given here)
suppression rate of expression, 50 nM: + (“+” when the suppression rate was at least 30%) | suppression rate of expression, 200 nM: +++ (“+++” when the suppression rate was at least 70%)

H118: ggaggtgcccagtgggcctc (GGAGGTGCCCAGTGGGCCTC; antisense; DNA, all phosphorothioate, methylation of C not given here)
suppression rate of expression, 50 nM: + (“+” when the suppression rate was at least 30%) | suppression rate of expression, 200 nM: ++ (“++” when the suppression rate was at least 50%)

H156: taaaagttggtacaaaaaac (dT*dA*dA*dA*dA*dG*dT*dT*dG*dG*dT*dA*dC*dA*dA*dA*dA*dA*dA*dC; antisense)
suppression rate of expression, 200 nM: + (“+” when the suppression rate was at least 30%)

H132: cttcctcatcaggccttttc (CTTCCTCATCAGGCCTTTTC; antisense; DNA, all phosphorothioate, methylation of C not given here)
suppression rate of expression, 200 nM: ++ (“++” when the suppression rate was at least 50%)

H110: caagccctgggtccggcatg (dC*dA*dA*dG*dC*dC*dC*dT*dG*dG*dG*dT*dC*dC*dG*dG*dC*dA*dT*dG; antisense)
suppression rate of expression, 50 nM: + (“+” when the suppression rate was at least 30%) | suppression rate of expression, 200 nM: ++ (“++” when the suppression rate was at least 50%)

H239: ttggaatgtattagagctgg (DNA dT*dT*dG*dG*dA*dA*dT*dG*dT*dA*dT*dT*dA*dG*dA*dG*dC*dT*dG*dG; antisense)
suppression rate of expression, 200 nM: + (“+” when the suppression rate was at least 30%)

H141 + 15: cctaagtgcaggcttggctg (CCTAAGTGCAGGCTTGGCTG; antisense; DNA, all phosphorothioate, methylation of C not given here)
suppression rate of expression, 50 nM: + (“+” when the suppression rate was at least 30%)

H161: tacctgtgcaagtagacaga (dT*dA*dC*dC*dT*dG*dT*dG*dC*dA*dA*dG*dT*dA*dG*dA*dC*dA*dG*dA; antisense)
suppression rate of expression, 200 nM: ++ (“++” when the suppression rate was at least 50%)

H074: acaccatgggaaatgggtac (dA*dC*dA*dC*dC*dA*dT*dG*dG*dG*dA*dA*dA*dT*dG*dG*dG*dT*dA*dC; antisense)
suppression rate of expression, 200 nM: + (“+” when the suppression rate was at least 30%)

H014: ctcgggcccggcggcgagcg (CTCGGGCCCGGCGGCGAGCG; antisense; DNA, all phosphorothioate, methylation of C not given here)
suppression rate of expression, 200 nM: +++ (“+++” when the suppression rate was at least 70%)

H036: acacgtgctgagactgactg (ACACGTGCTGAGACTGACTG; antisense; DNA, all phosphorothioate, methylation of C not given here)
suppression rate of expression, 200 nM: ++ (“++” when the suppression rate was at least 50%)

H144: cagaggcttctgaggggggt (CAGAGGCTTCTGAGGGGGGT; antisense; DNA, all phosphorothioate, methylation of C not given here)
suppression rate of expression, 50 nM: + (“+” when the suppression rate was at least 30%) | suppression rate of expression, 200 nM: ++ (“++” when the suppression rate was at least 50%)

H144 + 6: tgcaggcagaggcttctgag (TGCAGGCAGAGGCTTCTGAG; antisense; DNA, all phosphorothioate, methylation of C not given here)
suppression rate of expression, 50 nM: ++ (“++” when the suppression rate was at least 50%)

H166: aacaagccttcctgccatgg (dA*dA*dC*dA*dA*dG*dC*dC*dT*dT*dC*dC*dT*dG*dC*dC*dA*dT*dG*dG; antisense)
suppression rate of expression, 200 nM: ++ (“++” when the suppression rate was at least 50%)

H139: gcccggtggaggggaggaag (GCCCGGTGGAGGGGAGGAAG; antisense; DNA, all phosphorothioate, methylation of C not given here)
suppression rate of expression, 50 nM: + (“+” when the suppression rate was at least 30%) | suppression rate of expression, 200 nM: +++ (“+++” when the suppression rate was at least 70%)

H069: catcccgaaattgtggccca (dC*dA*dT*dC*dC*dC*dG*dA*dA*dA*dT*dT*dG*dT*dG*dG*dC*dC*dC*dA; antisense)
suppression rate of expression, 200 nM: + (“+” when the suppression rate was at least 30%)

H135: aacattctgacactgcagca (AACATTCTGACACTGCAGCA; antisense; DNA, all phosphorothioate, methylation of C not given here)
suppression rate of expression, 50 nM: + (“+” when the suppression rate was at least 30%) | suppression rate of expression, 200 nM: ++ (“++” when the suppression rate was at least 50%)

H137: gctgagggacattcaggccg (GCTGAGGGACATTCAGGCCG; antisense; DNA, all phosphorothioate, methylation of C not given here)
suppression rate of expression, 50 nM: ++ (“++” when the suppression rate was at least 50%) | suppression rate of expression, 200 nM: ++ (“++” when the suppression rate was at least 50%)

H133 + 4: cttcggtgggtaggaatctg (CTTCGGTGGGTAGGAATCTG; antisense; DNA, all phosphorothioate, methylation of C not given here)
suppression rate of expression, 50 nM: ++ (“++” when the suppression rate was at least 50%)

H230: taggaaaactgttgacccca (dT*dA*dG*dG*dA*dA*dA*dA*dC*dT*dG*dT*dT*dG*dA*dC*dC*dC*dC*dA; antisense)
suppression rate of expression, 200 nM: ++ (“++” when the suppression rate was at least 50%)

H139 + 16: gctaggtgcacgtggggccc (GCTAGGTGCACGTGGGGCCC; antisense; DNA, all phosphorothioate, methylation of C not given here)
suppression rate of expression, 50 nM: ++ (“++” when the suppression rate was at least 50%)

H093: gtccacatcctgacatgagt (dG*dT*dC*dC*dA*dC*dA*dT*dC*dC*dT*dG*dA*dC*dA*dT*dG*dA*dG*dT; antisense)
suppression rate of expression, 200 nM: + (“+” when the suppression rate was at least 30%)

H008: gccgccgctgagctcttcta (GCCGCCGCTGAGCTCTTCTA; antisense; DNA, all phosphorothioate, methylation of C not given here)
suppression rate of expression, 50 nM: ++ (“++” when the suppression rate was at least 50%) | suppression rate of expression, 200 nM: ++ (“++” when the suppression rate was at least 50%)

H119: agccaaacttgtcacagaag (AGCCAAACTTGTCACAGAAG; antisense; DNA, all phosphorothioate, methylation of C not given here)
suppression rate of expression, 200 nM: + (“+” when the suppression rate was at least 30%)

H133: ggtgggtaggaatctggcgg (GGTGGGTAGGAATCTGGCGG; antisense; DNA, all phosphorothioate, methylation of C not given here)
suppression rate of expression, 50 nM: +++ (“+++” when the suppression rate was at least 70%) | suppression rate of expression, 200 nM: +++ (“+++” when the suppression rate was at least 70%)

H132 + 18: tgggtaggaatctggcggct (TGGGTAGGAATCTGGCGGCT; antisense; DNA, all phosphorothioate, methylation of C not given here)
suppression rate of expression, 50 nM: + (“+” when the suppression rate was at least 30%)

H163: cactgtaatcaacattctgc (dC*dA*dC*dT*dG*dT*dA*dA*dT*dC*dA*dA*dC*dA*dT*dT*dC*dT*dG*dC; antisense)
suppression rate of expression, 200 nM: + (“+” when the suppression rate was at least 30%)

H148: cggagcccagtctcccattg (dC*dG*dG*dA*dG*dC*dC*dC*dA*dG*dT*dC*dT*dC*dC*dC*dA*dT*dT*dG; antisense)
suppression rate of expression, 50 nM: + (“+” when the suppression rate was at least 30%) | suppression rate of expression, 200 nM: ++ (“++” when the suppression rate was at least 50%)

H145 + 1: tctggccagaggatctgcag (TCTGGCCAGAGGATCTGCAG; antisense; DNA, all phosphorothioate, methylation of C not given here)
suppression rate of expression, 50 nM: +++ (“+++” when the suppression rate was at least 70%)

H197: tgctcagctccaagcagtat (dT*dG*dC*dT*dC*dA*dG*dC*dT*dC*dC*dA*dA*dG*dC*dA*dG*dT*dA*dT; antisense)
suppression rate of expression, 200 nM: ++ (“++” when the suppression rate was at least 50%)

H150 + 15: ggtggatctgggcacttggt (dG*dG*dT*dG*dG*dA*dT*dC*dT*dG*dG*dG*dC*dA*dC*dT*dT*dG*dG*dT; antisense)
suppression rate of expression, 50 nM: + (“+” when the suppression rate was at least 30%)

H146: catgagtgagccgagttgtt (dC*dA*dT*dG*dA*dG*dT*dG*dA*dG*dC*dC*dG*dA*dG*dT*dT*dG*dT*dT; antisense)
suppression rate of expression, 50 nM: + (“+” when the suppression rate was at least 30%) | suppression rate of expression, 200 nM: ++ (“++” when the suppression rate was at least 50%)

H179: gttgtcaaggggcacagggc (dG*dT*dT*dG*dT*dC*dA*dA*dG*dG*dG*dG*dC*dA*dC*dA*dG*dG*dG*dC; antisense)
suppression rate of expression, 200 nM: ++ (“++” when the suppression rate was at least 50%)
